The results in this text go back to US8183262B2, “Pyridine derivatives as mGluR2 antagonists” (Hoffmann-La Roche Inc., priority 2007, dated 2012).

Test system in one data set: not given
Assay: not given
Conditions: not given
Regarding `FC(F)(F)c1cc(-c2ccc(Cl)cc2)nc(-n2ccnc2)n1` [Example 1, 4-(4-Chloro-phenyl)-2-imidazol-1-yl-6-trifluoromethyl-pyrimidine], the melting point – broadly, the temperature of the solid-liquid transition – came to 175 °C. Regarding `NS(=O)(=O)c1cccc(-c2cccc(-c3nc(-c4ccc(C(F)(F)F)c(OCC(F)(F)F)c4)cc(C(F)(F)F)n3)c2)c1` [Example 447, 3′-{4-[3-(2,2,2-Trifluoro-ethoxy)-4-trifluoromethyl-phenyl]-6-trifluoromethyl-pyrimidin-2-yl}-biphenyl-3-sulfonic acid amide], the melting point stood at 188 °C. The compound `NS(=O)(=O)c1cccc(-c2cc(-c3nc(-c4ccc(C(F)(F)F)c(OCC(F)(F)F)c4)cc(C(F)(F)F)n3)ccn2)c1` [Example 448, 3-(4-{4-[3-(2,2,2-Trifluoro-ethoxy)-4-trifluoromethyl-phenyl]-6-trifluoromethyl-pyrimidin-2-yl}-pyridin-2-yl)-benzenesulfonamide] yielded a melting point of 211 °C. The compound `NS(=O)(=O)c1cccc(-c2cc(-c3nc(-c4cccc(C(F)(F)F)c4)cc(C(F)(F)F)n3)ccn2)c1` [Example 449, 3-{4-[4-Trifluoromethyl-6-(3-trifluoromethyl-phenyl)-pyrimidin-2-yl]-pyridin-2-yl}-benzenesulfonamide] registered a melting point of 244 °C. In the case of `NS(=O)(=O)c1cccc(-c2cc(-c3nc(-c4ccc(C(F)(F)F)cc4F)cc(C(F)(F)F)n3)ccn2)c1` [Example 450, 3-{4-[4-(2-Fluoro-4-trifluoromethyl-phenyl)-6-trifluoromethyl-pyrimidin-2-yl]-pyridin-2-yl}-benzenesulfonamide], the melting point worked out at 210 °C. In the case of `NS(=O)(=O)c1ccc(-c2cc(-c3nc(-c4ccc(C(F)(F)F)cc4F)cc(C(F)(F)F)n3)ccn2)s1` [Example 451, 5-{4-[4-(2-Fluoro-4-trifluoromethyl-phenyl)-6-trifluoromethyl-pyrimidin-2-yl]-pyridin-2-yl}-thiophene-2-sulfonic acid amide], the melting point worked out at 228 °C. Consider `CCOc1cc(-c2cc(C(F)(F)F)nc(-c3ccnc(-c4ccc(S(N)(=O)=O)s4)c3)n2)ccc1C(F)(F)F` [Example 453, 5-{4-[4-(3-Ethoxy-4-trifluoromethyl-phenyl)-6-trifluoromethyl-pyrimidin-2-yl]-pyridin-2-yl}-thiophene-2-sulfonic acid amide], for which the melting point was determined as 237.5 °C. Turning to `CCCC(=O)NS(=O)(=O)c1cccc(-c2cccc(-c3cc(-c4ccc(C(F)(F)F)cc4)cc(C)n3)n2)c1` [Example 454, N-Butyryl-3-[6′-methyl-4′-(4-trifluoromethyl-phenyl)-[2,2′]bipyridinyl-6-yl]-benzenesulfonamide], the melting point came to 188 °C.

On to `Cc1cc(-c2ccc(C(F)(F)F)cc2)cc(-c2cccc(-c3cccc(S(=O)(=O)NC(=O)C(C)C)c3)n2)n1` [Example 455, N-Isobutyryl-3-[6′-methyl-4′-(4-trifluoromethyl-phenyl)-[2,2′]bipyridinyl-6-yl]-benzenesulfonamide], for which the melting point came out at 190 °C. For `NS(=O)(=O)c1cccc(-c2cccc(-c3nc(-c4ccc(C(F)(F)F)cc4)cc(C(F)F)n3)c2)c1` [Example 456, 3′-[4-Difluoromethyl-6-(4-trifluoromethyl-phenyl)-pyrimidin-2-yl]-biphenyl-3-sulfonic acid amide], the melting point was 204 °C. Still for that read-out and setting: in the case of `NS(=O)(=O)c1cccc(-c2cc(-c3nc(-c4ccc(C(F)(F)F)cc4)cc(C(F)F)n3)ccn2)c1` [Example 457, 3-{4-[4-Difluoromethyl-6-(4-trifluoromethyl-phenyl)-pyrimidin-2-yl]-pyridin-2-yl}-benzenesulfonamide] it was 233.5 °C; in that of `NS(=O)(=O)c1ccc(-c2cc(-c3nc(-c4ccc(C(F)(F)F)cc4)cc(C(F)F)n3)ccn2)s1` [Example 458, 5-{4-[4-Difluoromethyl-6-(4-trifluoromethyl-phenyl)-pyrimidin-2-yl]-pyridin-2-yl}-thiophene-2-sulfonic acid amide], 242 °C. In turn, `NS(=O)(=O)c1ccc(-c2cccc(-c3nc(-c4ccc(C(F)(F)F)cc4)cc(C(F)F)n3)c2)s1` [Example 459, 5-{3-[4-Difluoromethyl-6-(4-trifluoromethyl-phenyl)-pyrimidin-2-yl]-phenyl}-thiophene-2-sulfonic acid amide] showed a melting point of 240.5 °C.

The compound `NS(=O)(=O)c1cccc(-c2cccc(-c3nc(-c4ccc(C(F)(F)F)c(F)c4)cc(C(F)(F)F)n3)c2)c1` [Example 460, 3′-[4-(3-Fluoro-4-trifluoromethyl-phenyl)-6-trifluoromethyl-pyrimidin-2-yl]-biphenyl-3-sulfonic acid amide] came in with a melting point of 227.5 °C. With `NS(=O)(=O)c1ccc(-c2cccc(-c3nc(-c4ccc(C(F)(F)F)c(F)c4)cc(C(F)(F)F)n3)c2)s1` [Example 461, 5-{3-[4-(3-Fluoro-4-trifluoromethyl-phenyl)-6-trifluoromethyl-pyrimidin-2-yl]-phenyl}-thiophene-2-sulfonic acid amide], the melting point was found to be 213.5 °C. On to `COCC(=O)NS(=O)(=O)c1cccc(-c2cccc(-c3cc(-c4ccc(C(F)(F)F)cc4)cc(C)n3)n2)c1` [Example 462, N-(2-Methoxy-acetyl)-3-[6′-methyl-4′-(4-trifluoromethyl-phenyl)-[2,2′]bipyridinyl-6-yl]-benzenesulfonamide], for which the melting point was determined as 188 °C.

Another data set deals with T1, rat mGlu2 receptor (Rattus norvegicus, UniProt P31421).
T1 construct: expressed in transfected cells; membranes prepared
T1 sequence (P31421 19-872): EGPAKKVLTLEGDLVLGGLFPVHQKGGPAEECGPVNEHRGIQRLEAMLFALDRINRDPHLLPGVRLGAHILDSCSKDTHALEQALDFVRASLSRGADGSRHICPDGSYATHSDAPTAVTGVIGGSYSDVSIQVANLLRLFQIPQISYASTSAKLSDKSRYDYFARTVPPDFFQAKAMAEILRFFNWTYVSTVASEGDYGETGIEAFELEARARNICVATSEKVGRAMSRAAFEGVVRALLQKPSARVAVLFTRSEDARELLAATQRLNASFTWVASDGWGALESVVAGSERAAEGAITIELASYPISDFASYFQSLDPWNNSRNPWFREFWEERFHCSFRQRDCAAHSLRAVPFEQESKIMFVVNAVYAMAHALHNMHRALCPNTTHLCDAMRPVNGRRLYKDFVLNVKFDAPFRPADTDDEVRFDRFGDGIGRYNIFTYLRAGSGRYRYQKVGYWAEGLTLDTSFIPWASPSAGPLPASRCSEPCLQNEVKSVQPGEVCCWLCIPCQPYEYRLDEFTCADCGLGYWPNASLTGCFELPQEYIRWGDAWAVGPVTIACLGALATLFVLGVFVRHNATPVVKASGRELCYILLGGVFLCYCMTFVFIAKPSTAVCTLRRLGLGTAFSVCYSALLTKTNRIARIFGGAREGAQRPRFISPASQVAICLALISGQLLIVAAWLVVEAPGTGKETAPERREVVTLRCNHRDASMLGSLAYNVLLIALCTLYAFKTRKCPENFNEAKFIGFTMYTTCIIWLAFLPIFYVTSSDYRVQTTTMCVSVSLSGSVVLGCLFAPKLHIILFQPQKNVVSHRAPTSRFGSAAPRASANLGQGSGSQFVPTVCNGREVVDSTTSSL
Nature of the data set: [3H]-LY354740 binding on mGlu2 transfected CHO cell membranes. The settings on record: inhibition of 10 nM [3H]-LY354740 binding, membranes of CHO cells transfected with rat mGlu2, room temperature, 1 hour. An excerpt: [^3H]-LY354740 Binding on mGlu2 Transfected CHO Cell Membranes. Transfection and Cell Culture
cDNA encoding the rat mGlu2 receptor protein in pBluescript II was subcloned into the eukaryotic expression vector pcDNA I-amp from Invitrogen Ltd (Paisley, UK). This vector construct (pcD1mGR2) was co-transfected with a psvNeo plasmid encoding the gene for neomycin resistance, into CHO cells by a modified calcium phosphate method described by Chen & Okayama (1988). The cells were maintained in Dulbecco's Modified Eagle medium with reduced L-glutamine (1 mM final concentration), 36 mg/L L-Proline and 10% dialysed foetal calf serum from Gibco-Invitrogen; the medium was supplemented with 500 microM α-methyl-4-carboxyphenylglycine (MCPG). Selection was made in the presence of G-418 (300 ug/ml final concentration). Clones were identified by reverse transcription of 5 μg total RNA, followed by PCR using mGlu2 receptor specific primers 5′-[…]-3′ and 5′-[…]-3′ in 60 mM Tris HCl (pH 10), 15 mM (NH4)2SO4, 2 mM MgCl2, 25 units/ml Taq Polymerase with 30 cycles annealing at 60° C. for 1 min., extention at 72° C. for 30 s, and 1 min. 95° C. denaturation.
Cells, cultured as above, were harvested and washed three times with cold PBS and frozen at −80° C. The pellet was resuspended in cold 20 mM HEPES-NaOH buffer containing 10 mM EDTA (pH 7.4), and homogenised with a polytron (Kinematica, A G, Littau, Switzerland) for 10 s at 10 000 rpm. After centrifugation for 30 min. at 4° C., the pellet was washed once with cold 20 mM HEPES-NaOH buffer containing 0.1 mM EDTA, (pH 7.4). After a second centrifugation for 30 min. at 4° C. the pellet was resuspended in cold 20 mM HEPES-NaOH buffer containing 0.1 mM EDTA, (pH 7.4). Protein content was measured using the Micro BCA method from Pierce-Perbio (Rockford, Ill., USA) using bovine serum albumin as standard.
After thawing, the membranes were resuspended in cold 50 mM Tris-HCl buffer containing 2 mM MgCl2 (pH 7.4) (binding buffer). The final concentration of the membranes in the assays was 25 μg protein/ml. Inhibition experiments were performed with membranes incubated with 10 nM [^3H]-LY354740 at room temperature, for 1 hour, in presence of various concentrations of the compound to be tested. Following the incubations, membranes were filtered onto Whatmann GF/B glass fiber filters or onto GF/B Unifilter plates and washed 5 times with cold binding buffer. Non specific binding was measured in the presence of 10 μM (2S,2′R,3′R)-2-(2′3′-Dicarboxycyclopropyl)glycine (DCG IV from Tocris, Ellisville, Mo. USA). After transfer of the filters into plastic vials containing 10 ml of Ultima-gold scintillation fluid from Perkin-Elmer (Boston, Mass., USA), the radioactivity was measured by liquid scintillation in a Tri-Carb 2500 TR counter (Packard, Zürich, Switzerland). For 96-Unifilter plates the radioactivity was measured after addition of Microscint 40 scintillation fluid (Perkin Elmer, Boston Mass.) using a TopCount NXT (Packard)
The inhibition curves were fitted with a four parameter logistic equation giving IC50 values, and Hill coefficients.
Take `FC(F)(F)c1cc(-c2ccc(Cl)cc2)nc(-n2ccnc2)n1` [Example 1, 4-(4-Chloro-phenyl)-2-imidazol-1-yl-6-trifluoromethyl-pyrimidine]: the Ki (in general, the dissociation constant of the complex between target and ligand, obtained from inhibition or displacement) was determined as 74 nM.

Consider `Nc1ccc(-c2ncn(-c3cc(C(F)(F)F)cc(-c4ccc(C(F)(F)F)cc4)n3)n2)cn1` [Example 277, 5-{1-[4-Trifluoromethyl-6-(4-trifluoromethyl-phenyl)-pyridin-2-yl]-1H-[1,2,4]triazol-3-yl}-pyridin-2-ylamine], for which the affinity, expressed as Ki, was 71 nM. `CC(C)(C)NS(=O)(=O)c1cccc(-c2cn(-c3cc(C(F)(F)F)cc(-c4ccc(C(F)(F)F)cc4)n3)cn2)c1` [Example 280, N-tert-Butyl-3-{1-[4-trifluoromethyl-6-(4-trifluoromethyl-phenyl)-pyridin-2-yl]-1H-imidazol-4-yl}-benzenesulfonamide] displayed a Ki of 3 nM.

The compound `Cc1cc(-c2ccc(C(F)(F)F)cc2)cc(-c2ccnc(-c3cccc([N+](=O)[O-])c3)n2)n1` [Example 322, 4-[6-Methyl-4-(4-trifluoromethyl-phenyl)-pyridin-2-yl]-2-(3-nitro-phenyl)-pyrimidine] registered a Ki of 9 nM. For the compound `Cc1cc(-c2ccc(C(F)(F)F)cc2)cc(-c2ccnc(-c3cccc(NS(C)(=O)=O)c3)n2)n1` [Example 330, N-(3-{4-[6-Methyl-4-(4-trifluoromethyl-phenyl)-pyridin-2-yl]-pyrimidin-2-yl}-phenyl)-methanesulfonamide], the affinity, expressed as Ki, was 4 nM. The compound `Cc1cc(-c2ccc(C(F)(F)F)cc2)cc(-c2cccc(-c3cccc(NS(=O)(=O)NC(=O)OC(C)(C)C)c3)n2)n1` [Example 334, N-(tert-Butoxycarbonyl)-N′-{3-[6′-methyl-4′-(4-trifluoromethyl-phenyl)-[2,2′]bipyridinyl-6-yl]-phenyl}-sulfamide] came in with a Ki of 11 nM. `Cc1cc(-c2ccc(C(F)(F)F)cc2)cc(-c2ccnc(-c3cccc(NS(N)(=O)=O)c3)n2)n1` [Example 338, N-(3-{4-[6-Methyl-4-(4-trifluoromethyl-phenyl)-pyridin-2-yl]-pyrimidin-2-yl}-phenyl)-sulfamide] gave a Ki of 1 nM. `Cc1cc(-c2ccc(C(F)(F)F)cc2)cc(-c2cccc(-c3cccc(S(=O)(=O)O)c3)n2)n1` [Example 345, 3-[6′-Methyl-4′-(4-trifluoromethyl-phenyl)-[2,2′]bipyridinyl-6-yl]-benzenesulfonic acid] registered an inhibition constant Ki of 0.7 nM.
